{
  "source": "paper PMC6393351",
  "about": "“Linking Terpene Synthases to Sesquiterpene Metabolism in Grapevine Flowers” (Frontiers in Plant Science, 2019)",
  "experiment_in_all_cases": "in vivo yeast expression, HS-SPME-GC-MS of volatiles",
  "format_in_all_cases": "cell-based",
  "conditions_in_all_cases": "endogenous FPP of engineered yeast GT051, not added; pH 6, 5 mM Mg2+, 30 °C, 16 h",
  "key": {"VvivMATPS10": {"biological_target": "T1, VvivMATPS10 (Vitis vinifera, UniProt A0A482AL43)", "T1 construct": "full-length ORF from flower cDNA; yeast GT051 (GAL1 promoter); also transient expression in N. benthamiana (pEAQ-HT-DEST1)", "T1 sequence (A0A482AL43 1-560)": "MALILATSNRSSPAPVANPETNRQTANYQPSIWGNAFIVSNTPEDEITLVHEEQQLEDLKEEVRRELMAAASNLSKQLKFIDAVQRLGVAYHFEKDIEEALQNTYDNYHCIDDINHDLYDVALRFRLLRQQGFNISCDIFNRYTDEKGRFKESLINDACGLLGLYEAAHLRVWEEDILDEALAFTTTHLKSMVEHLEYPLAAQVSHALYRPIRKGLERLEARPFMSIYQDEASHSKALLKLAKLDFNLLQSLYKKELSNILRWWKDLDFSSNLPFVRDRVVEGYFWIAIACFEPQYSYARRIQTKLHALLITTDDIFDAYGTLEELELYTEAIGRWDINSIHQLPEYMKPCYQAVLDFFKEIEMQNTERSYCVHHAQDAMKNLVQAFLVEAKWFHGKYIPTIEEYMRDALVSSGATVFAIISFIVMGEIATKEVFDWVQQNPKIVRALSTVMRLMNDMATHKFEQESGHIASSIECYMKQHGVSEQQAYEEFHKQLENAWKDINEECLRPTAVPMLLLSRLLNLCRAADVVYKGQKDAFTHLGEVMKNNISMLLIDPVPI"}, "VvivSHTPS27": {"biological_target": "T2, VvivSHTPS27 (Vitis vinifera, UniProt A0A482AKK8)", "T2 construct": "full-length ORF from cDNA; expressed in yeast GT051 under GAL1 promoter", "T2 sequence (A0A482AKK8 1-557)": "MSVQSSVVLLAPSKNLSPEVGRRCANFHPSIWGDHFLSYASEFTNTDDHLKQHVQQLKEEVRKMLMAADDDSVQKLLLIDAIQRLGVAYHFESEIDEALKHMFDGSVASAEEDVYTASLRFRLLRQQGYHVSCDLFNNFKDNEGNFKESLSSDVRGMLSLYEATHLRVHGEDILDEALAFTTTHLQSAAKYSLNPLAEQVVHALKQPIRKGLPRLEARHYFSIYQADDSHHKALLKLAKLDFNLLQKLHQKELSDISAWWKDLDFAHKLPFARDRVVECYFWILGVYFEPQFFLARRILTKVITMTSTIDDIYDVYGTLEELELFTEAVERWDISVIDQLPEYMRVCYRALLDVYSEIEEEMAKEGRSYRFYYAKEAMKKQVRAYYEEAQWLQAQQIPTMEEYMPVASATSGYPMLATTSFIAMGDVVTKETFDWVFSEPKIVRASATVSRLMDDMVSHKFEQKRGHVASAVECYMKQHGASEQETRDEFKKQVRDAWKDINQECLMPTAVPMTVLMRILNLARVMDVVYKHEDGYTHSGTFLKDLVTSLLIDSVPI"}, "VvivSBTPS01": {"biological_target": "T3, VvivSBTPS01 (Vitis vinifera, UniProt A0A482ALZ4)", "T3 construct": "full-length ORF from cDNA; expressed in yeast GT051 under GAL1 promoter", "T3 sequence (A0A482ALZ4 1-555)": "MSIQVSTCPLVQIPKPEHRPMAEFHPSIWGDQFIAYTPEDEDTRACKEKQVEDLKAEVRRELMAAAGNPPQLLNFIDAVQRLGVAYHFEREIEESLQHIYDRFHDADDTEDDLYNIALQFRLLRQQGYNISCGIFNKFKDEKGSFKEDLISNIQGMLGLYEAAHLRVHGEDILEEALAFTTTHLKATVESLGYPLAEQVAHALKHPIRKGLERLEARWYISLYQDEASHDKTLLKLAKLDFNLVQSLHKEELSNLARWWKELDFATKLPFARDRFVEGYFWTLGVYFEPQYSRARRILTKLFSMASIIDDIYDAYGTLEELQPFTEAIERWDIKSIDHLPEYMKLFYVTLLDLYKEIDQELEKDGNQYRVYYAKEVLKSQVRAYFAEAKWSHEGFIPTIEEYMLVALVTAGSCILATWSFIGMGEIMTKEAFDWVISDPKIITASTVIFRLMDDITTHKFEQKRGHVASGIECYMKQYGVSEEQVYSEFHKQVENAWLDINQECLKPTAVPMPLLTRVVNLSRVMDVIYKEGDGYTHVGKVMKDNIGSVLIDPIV"}, "VvivMATPS01": {"biological_target": "T4, VvivMATPS01 (Vitis vinifera, UniProt A0A482ANT9)", "T4 construct": "full-length ORF from cDNA; expressed in yeast GT051 under GAL1 promoter", "T4 sequence (A0A482ANT9 1-555)": "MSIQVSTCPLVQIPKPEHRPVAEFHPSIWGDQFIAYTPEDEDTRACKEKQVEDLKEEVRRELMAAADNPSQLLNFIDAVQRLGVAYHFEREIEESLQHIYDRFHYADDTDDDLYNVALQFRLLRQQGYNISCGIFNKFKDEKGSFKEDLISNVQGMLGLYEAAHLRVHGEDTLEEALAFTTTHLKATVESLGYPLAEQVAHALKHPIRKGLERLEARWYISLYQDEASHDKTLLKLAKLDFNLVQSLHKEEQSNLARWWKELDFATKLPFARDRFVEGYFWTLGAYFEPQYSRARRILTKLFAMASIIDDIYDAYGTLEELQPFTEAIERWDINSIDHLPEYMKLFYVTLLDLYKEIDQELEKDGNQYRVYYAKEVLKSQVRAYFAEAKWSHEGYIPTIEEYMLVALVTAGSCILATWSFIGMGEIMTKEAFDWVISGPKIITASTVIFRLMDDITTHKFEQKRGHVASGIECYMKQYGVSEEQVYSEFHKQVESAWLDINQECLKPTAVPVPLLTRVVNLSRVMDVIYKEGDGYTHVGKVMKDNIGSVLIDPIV"}, "VvivSBTPS02": {"biological_target": "T5, VvivSBTPS02 (Vitis vinifera, UniProt A0A482AJK8)", "T5 construct": "full-length ORF from cDNA; expressed in yeast GT051 under GAL1 promoter", "T5 sequence (A0A482AJK8 1-555)": "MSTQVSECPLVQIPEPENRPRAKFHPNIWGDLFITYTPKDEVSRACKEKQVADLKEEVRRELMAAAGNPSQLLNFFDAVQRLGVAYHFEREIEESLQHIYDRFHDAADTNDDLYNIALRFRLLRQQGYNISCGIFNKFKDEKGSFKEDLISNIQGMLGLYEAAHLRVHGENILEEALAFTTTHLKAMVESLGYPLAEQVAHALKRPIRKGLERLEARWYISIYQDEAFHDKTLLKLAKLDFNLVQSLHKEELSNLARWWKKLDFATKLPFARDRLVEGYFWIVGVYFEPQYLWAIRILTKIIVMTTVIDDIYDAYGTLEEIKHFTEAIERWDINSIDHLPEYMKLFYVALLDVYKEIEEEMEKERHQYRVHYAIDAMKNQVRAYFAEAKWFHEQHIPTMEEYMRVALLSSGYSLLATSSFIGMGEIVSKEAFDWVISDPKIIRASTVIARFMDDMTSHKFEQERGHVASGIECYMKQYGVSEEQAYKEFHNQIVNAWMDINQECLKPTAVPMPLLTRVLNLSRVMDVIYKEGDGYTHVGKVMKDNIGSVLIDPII"}, "VvivMATPS27": {"biological_target": "T6, VvivMATPS27 (Vitis vinifera, UniProt E5GAF4)", "T6 construct": "full-length ORF from cDNA; expressed in yeast GT051 under GAL1 promoter", "T6 sequence (E5GAF4 1-557)": "T2 sequence (A0A482AKK8 1-557) with F27Y"}, "VvivMATPS28": {"biological_target": "T7, VvivMATPS28 (Vitis vinifera, UniProt A0A482AJV9)", "T7 construct": "full-length ORF from cDNA; expressed in yeast GT051 under GAL1 promoter", "T7 sequence (A0A482AJV9 1-558)": "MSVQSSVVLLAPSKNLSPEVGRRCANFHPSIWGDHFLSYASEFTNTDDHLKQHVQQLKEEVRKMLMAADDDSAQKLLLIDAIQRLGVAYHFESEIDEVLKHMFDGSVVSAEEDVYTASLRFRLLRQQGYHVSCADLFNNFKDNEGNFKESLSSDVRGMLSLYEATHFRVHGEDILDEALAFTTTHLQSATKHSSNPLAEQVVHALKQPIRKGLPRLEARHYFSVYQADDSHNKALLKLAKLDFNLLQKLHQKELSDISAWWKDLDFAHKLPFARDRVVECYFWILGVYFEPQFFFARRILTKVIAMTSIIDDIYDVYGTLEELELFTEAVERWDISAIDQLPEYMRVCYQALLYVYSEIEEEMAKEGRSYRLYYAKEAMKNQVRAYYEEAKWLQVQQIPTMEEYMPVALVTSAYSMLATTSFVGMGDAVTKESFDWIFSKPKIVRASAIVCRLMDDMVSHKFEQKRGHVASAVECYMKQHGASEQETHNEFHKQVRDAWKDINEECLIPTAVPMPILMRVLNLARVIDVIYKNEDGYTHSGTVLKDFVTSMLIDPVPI"}},
  "note": "Numbering of substitutions follows the chain as printed.",
  "data": [
    {"molecule": "CC(C)=CCC/C(C)=C/CC/C(C)=C/COP(=O)(O)OP(=O)(O)O", "note": "[FPP]", "values": [
      {"measurement": "in vivo yeast expression, HS-SPME-GC-MS of volatiles", "setting": "VvivMATPS10", "result": "increase the metabolic flux for the FPP terpene precursor"},
      {"measurement": "in vivo yeast expression, HS-SPME-GC-MS of volatiles", "setting": "VvivSHTPS27", "result": "increase the metabolic flux for the FPP terpene precursor"},
      {"measurement": "in vivo yeast expression, HS-SPME-GC-MS of volatiles", "setting": "VvivSBTPS01", "result": "increase the metabolic flux for the FPP terpene precursor"},
      {"measurement": "in vivo yeast expression, HS-SPME-GC-MS of volatiles", "setting": "VvivMATPS01", "result": "increase the metabolic flux for the FPP terpene precursor"},
      {"measurement": "in vivo yeast expression, HS-SPME-GC-MS of volatiles", "setting": "VvivSBTPS02", "result": "increase the metabolic flux for the FPP terpene precursor"},
      {"measurement": "in vivo yeast expression, HS-SPME-GC-MS of volatiles", "setting": "VvivMATPS27", "result": "increase the metabolic flux for the FPP terpene precursor"},
      {"measurement": "in vivo yeast expression, HS-SPME-GC-MS of volatiles", "setting": "VvivMATPS28", "result": "increase the metabolic flux for the FPP terpene precursor"}
    ]}
  ]
}
